Measurements from article PMC10897476, “Pyridylpiperazine efflux pump inhibitor boosts in vivo antibiotic efficacy against K. pneumoniae” (EMBO Molecular Medicine, 2023).
“And” between values parts separate entries of the source, which are not always exact repeats. Equal entries are not always repeated. Where two headings read alike, the source gives them in different places. Marks after values point to notes of the source that are not given here.

Key:
Format in all cases: cell-based, Klebsiella pneumoniae
K. pneumoniae AcrB^V448E [1] = experiment: MIC of antibiotics with and without EPI (REMA), AcrB V448E mutant; conditions: for Minimum Inhibitory Concentration: K. pneumoniae AcrB^V448E
How it was run: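 K. pneumoniae ATCC 43816 carrying single chromosomal acrB or ramR mutations introduced by allelic exchange, diluted to OD600 = 0.001 in CAMHB with EPI at final 100 µM. Incubated 37 °C up to 20 h; viability by resazurin fluorescence (Ex 530/Em 590 nm).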

[2] = system: K. pneumoniae ATCC 43816 (WT); experiment: Checkerboard assay levofloxacin x EPI, WT strain; conditions: for checkerboard growth readout: ATCC43816 WT, EPI 0 µM; for MIC: Klebsiella pneumoniae; for Median REMA values (percentage resazurin turnover): median n=3; for Median REMA values (percentage resazurin turnover) / percentage resazurin turnover: listed as Lev; for percentage resazurin turnover: individual replicates
Procedure: (§1) MIC experiments were carried out according to the CLSI guidelines (CLSI [2023]). Overnight cultures were diluted to an OD600 = 0.001 in CAMHB followed by addition of efflux pump inhibitors (EPIs) at a final concentration of 100 µM. […] Plates were incubated at 37 °C for up to 20 h. Bacterial viability was evaluated using the resazurin microtitre assay (REMA) and measured by fluorescence using a Tecan Spaert multimode plate reader (Ex: 530 nm Em: 590 nm). MICs were defined as the concentration that prevented 90% of resazurin turnover compared to the non-treated bacteria.
(§2) Bacterial suspensions, incubation and plate readouts were carried out as described above.

K. pneumoniae AcrB^V448E [3] = experiment: Checkerboard assay levofloxacin x EPI, AcrB V448E mutant; conditions: for checkerboard growth readout: ATCC43816 AcrBV448E, EPI 0 µM; for percentage resazurin turnover: listed as Lev
Procedure: as §1, §2

[4] = system: K. pneumoniae RamR^mut (K124*stop); experiment: Checkerboard assay levofloxacin x EPI, RamR mutant; conditions: for checkerboard growth readout: ATCC43816 ramRmut, EPI 0 µM; for MIC: Klebsiella pneumoniae
Procedure: as §1, §2

[5] = system: K. pneumoniae AcrB^V448E RamR^mut; experiment: Checkerboard assay levofloxacin x EPI, double mutant; conditions: ATCC43816 AcrBV448E ramRmut, EPI 0 µM
Procedure: as §1, §2

[6] = Lev 0.24 ng/mL, BDM91288 0.00 uM
[7] = Lev 0.49 ng/mL, BDM91288 0.00 uM
[8] = Lev 0.98 ng/mL, BDM91288 0.00 uM
[9] = Lev 1.95 ng/mL, BDM91288 0.00 uM
[10] = Lev 3.91 ng/mL, BDM91288 0.00 uM
[11] = Lev 7.81 ng/mL, BDM91288 0.00 uM
[12] = Lev 15.63 ng/mL, BDM91288 0.00 uM
[13] = Lev 31.25 ng/mL, BDM91288 0.00 uM
[14] = Lev 62.50 ng/mL, BDM91288 0.00 uM
[15] = Lev 500.00 ng/mL, BDM91288 0.00 uM
[16] = Lev 1000 ng/mL, BDM91288 0.00 uM

C[C@H]1COc2c(N3CCN(C)CC3)c(F)cc3c(=O)c(C(=O)O)cn1c23 [Levofloxacin]
Minimum Inhibitory Concentration (K. pneumoniae AcrB^V448E [1]; + 100 µM 1'): 0.03 mg/L | Minimum Inhibitory Concentration (K. pneumoniae AcrB^V448E [1]; + 100 µM 5): 0.03 mg/L | Minimum Inhibitory Concentration (K. pneumoniae AcrB^V448E [1]; + 100 µM PAβN): 0.02^# mg/L | MIC (K. pneumoniae AcrB^V448E [1]; Klebsiella pneumoniae, read-out: Minimum Inhibitory Concentration): 0.04 µg/mL | checkerboard growth readout ([2]; levofloxacin 4 ng/mL): 114 and 99 | checkerboard growth readout ([2]; levofloxacin 8 ng/mL): 102 and 104 | checkerboard growth readout ([2]; levofloxacin 15.625 ng/mL): 112 and 95 | checkerboard growth readout ([2]; levofloxacin 31.25 ng/mL): 88 and 69 | MIC ([2]; ATCC43816, read-out: levofloxacin MIC (checkerboard)): 0.0625 µg/mL | MIC ([2]; ATCC43816, read-out: levofloxacin boosted MIC (checkerboard)): 0.016 µg/mL | Median REMA values (percentage resazurin turnover) ([2]; Lev 0.24 ng/mL + EPI 0.00 uM): 82% and 111% | Median REMA values (percentage resazurin turnover) ([2]; Lev 0.49 ng/mL + EPI 0.00 uM): 103% and 87% | Median REMA values (percentage resazurin turnover) ([2]; Lev 0.98 ng/mL + EPI 0.00 uM): 102% and 101% | percentage resazurin turnover ([2]; Lev 1.95 ng/mL + EPI 0.00 uM): 92% and 97% | Median REMA values (percentage resazurin turnover) ([2]; Lev 1.95 ng/mL + EPI 0.00 uM): 101% and 92% | percentage resazurin turnover ([2]; Lev 3.91 ng/mL + EPI 0.00 uM): 128% and 114% and 108% | Median REMA values (percentage resazurin turnover) ([2]; Lev 3.91 ng/mL + EPI 0.00 uM): 99% and 114% | percentage resazurin turnover ([2]; Lev 7.81 ng/mL + EPI 0.00 uM): 102% and 106% and 72% | Median REMA values (percentage resazurin turnover) ([2]; Lev 7.81 ng/mL + EPI 0.00 uM): 104% and 102% | percentage resazurin turnover ([2]; Lev 15.63 ng/mL + EPI 0.00 uM): 100% and 112% and 143% | Median REMA values (percentage resazurin turnover) ([2]; Lev 15.63 ng/mL + EPI 0.00 uM): 95% and 112% | percentage resazurin turnover ([2]; Lev 31.25 ng/mL + EPI 0.00 uM): 88% and 76% and 139% | Median REMA values (percentage resazurin turnover) ([2]; Lev 31.25 ng/mL + EPI 0.00 uM): 69% and 88% | percentage resazurin turnover ([2]; Lev 62.50 ng/mL + EPI 0.00 uM): -0.208% and 0.0384% and 0.176% | Median REMA values (percentage resazurin turnover) ([2]; Lev 62.50 ng/mL + EPI 0.00 uM): -0.588% and 0.0384% | percentage resazurin turnover ([2]; Lev 500.00 ng/mL + EPI 0.00 uM): -0.171% and 0.0154% and 0.238% | Median REMA values (percentage resazurin turnover) ([2]; Lev 500.00 ng/mL + EPI 0.00 uM): -0.604% and 0.0154% | percentage resazurin turnover ([2]; Lev 1000 ng/mL + EPI 0.00 uM): -0.203% and 0.204% and -0.0468% | Median REMA values (percentage resazurin turnover) ([2]; Lev 1000 ng/mL + EPI 0.00 uM): -0.268% and -0.0468% | checkerboard growth readout (K. pneumoniae AcrB^V448E [3]; levofloxacin 4 ng/mL): 107 and 101 | checkerboard growth readout (K. pneumoniae AcrB^V448E [3]; levofloxacin 8 ng/mL): 111 and 91 | checkerboard growth readout (K. pneumoniae AcrB^V448E [3]; levofloxacin 15.625 ng/mL): 117 and 89 | checkerboard growth readout (K. pneumoniae AcrB^V448E [3]; levofloxacin 31.25 ng/mL): 91 and 81 | Median REMA values (K. pneumoniae AcrB^V448E [3]; [6]): 88% | percentage resazurin turnover (K. pneumoniae AcrB^V448E [3]; [6]): 93% and 88% and 53% | Median REMA values (K. pneumoniae AcrB^V448E [3]; Lev 0.24 ng/mL, PABN 0.00 uM): 81% | percentage resazurin turnover (K. pneumoniae AcrB^V448E [3]; Lev 0.24 ng/mL, PABN 0.00 uM): 88% and 81% and 56% | Median REMA values (K. pneumoniae AcrB^V448E [3]; [7]): 105% | percentage resazurin turnover (K. pneumoniae AcrB^V448E [3]; [7]): 102% and 108% and 105% | Median REMA values (K. pneumoniae AcrB^V448E [3]; Lev 0.49 ng/mL, PABN 0.00 uM): 70% | percentage resazurin turnover (K. pneumoniae AcrB^V448E [3]; Lev 0.49 ng/mL, PABN 0.00 uM): 68% and 101% and 70% | Median REMA values (K. pneumoniae AcrB^V448E [3]; [8]): 98% | percentage resazurin turnover (K. pneumoniae AcrB^V448E [3]; [8]): 98% and 105% and 79% | Median REMA values (K. pneumoniae AcrB^V448E [3]; Lev 0.98 ng/mL, PABN 0.00 uM): 106% | percentage resazurin turnover (K. pneumoniae AcrB^V448E [3]; Lev 0.98 ng/mL, PABN 0.00 uM): 106% and 107% and 72% | Median REMA values (K. pneumoniae AcrB^V448E [3]; [9]): 108% | percentage resazurin turnover (K. pneumoniae AcrB^V448E [3]; [9]): 108% and 109% and 104% | Median REMA values (K. pneumoniae AcrB^V448E [3]; Lev 1.95 ng/mL, PABN 0.00 uM): 104% | percentage resazurin turnover (K. pneumoniae AcrB^V448E [3]; Lev 1.95 ng/mL, PABN 0.00 uM): 104% and 118% and 78% | Median REMA values (K. pneumoniae AcrB^V448E [3]; [10]): 107% | percentage resazurin turnover (K. pneumoniae AcrB^V448E [3]; [10]): 107% and 111% and 81% | Median REMA values (K. pneumoniae AcrB^V448E [3]; Lev 3.91 ng/mL, PABN 0.00 uM): 101% | percentage resazurin turnover (K. pneumoniae AcrB^V448E [3]; Lev 3.91 ng/mL, PABN 0.00 uM): 101% and 111% and 73% | Median REMA values (K. pneumoniae AcrB^V448E [3]; [11]): 111% | percentage resazurin turnover (K. pneumoniae AcrB^V448E [3]; [11]): 111% and 76% | Median REMA values (K. pneumoniae AcrB^V448E [3]; Lev 7.81 ng/mL, PABN 0.00 uM): 91% | percentage resazurin turnover (K. pneumoniae AcrB^V448E [3]; Lev 7.81 ng/mL, PABN 0.00 uM): 91% and 110% and 79% | Median REMA values (K. pneumoniae AcrB^V448E [3]; [12]): 117% | percentage resazurin turnover (K. pneumoniae AcrB^V448E [3]; [12]): 117% and 105% | Median REMA values (K. pneumoniae AcrB^V448E [3]; Lev 15.63 ng/mL, PABN 0.00 uM): 89% | percentage resazurin turnover (K. pneumoniae AcrB^V448E [3]; Lev 15.63 ng/mL, PABN 0.00 uM): 119% and 89% and 72% | Median REMA values (K. pneumoniae AcrB^V448E [3]; [13]): 91% | percentage resazurin turnover (K. pneumoniae AcrB^V448E [3]; [13]): 91% and 87% and 102% | Median REMA values (K. pneumoniae AcrB^V448E [3]; Lev 31.25 ng/mL, PABN 0.00 uM): 81% | percentage resazurin turnover (K. pneumoniae AcrB^V448E [3]; Lev 31.25 ng/mL, PABN 0.00 uM): 81% and 70% | Median REMA values (K. pneumoniae AcrB^V448E [3]; [14]): -0.206% | percentage resazurin turnover (K. pneumoniae AcrB^V448E [3]; [14]): -0.206% and -0.287% and -0.155% | Median REMA values (K. pneumoniae AcrB^V448E [3]; Lev 62.50 ng/mL, PABN 0.00 uM): -0.817% | percentage resazurin turnover (K. pneumoniae AcrB^V448E [3]; Lev 62.50 ng/mL, PABN 0.00 uM): -0.685% and -0.817% and -0.819% | Median REMA values (K. pneumoniae AcrB^V448E [3]; [15]): -0.289% | percentage resazurin turnover (K. pneumoniae AcrB^V448E [3]; [15]): -0.289% and -0.371% and 0.114% | Median REMA values (K. pneumoniae AcrB^V448E [3]; Lev 500.00 ng/mL, PABN 0.00 uM): -0.75% | percentage resazurin turnover (K. pneumoniae AcrB^V448E [3]; Lev 500.00 ng/mL, PABN 0.00 uM): -0.676% and -1% and -0.75% | Median REMA values (K. pneumoniae AcrB^V448E [3]; [16]): 0.0503% | percentage resazurin turnover (K. pneumoniae AcrB^V448E [3]; [16]): 0.0503% and -0.121% and 0.102% | Median REMA values (K. pneumoniae AcrB^V448E [3]; Lev 1000 ng/mL, PABN 0.00 uM): -0.383% | percentage resazurin turnover (K. pneumoniae AcrB^V448E [3]; Lev 1000 ng/mL, PABN 0.00 uM): -0.346% and -0.646% and -0.383% | checkerboard growth readout ([4]; levofloxacin 4 ng/mL): 106 and 109 | checkerboard growth readout ([4]; levofloxacin 8 ng/mL): 110 and 118 | checkerboard growth readout ([4]; levofloxacin 15.625 ng/mL): 111 and 109 | checkerboard growth readout ([4]; levofloxacin 62.5 ng/mL): 111 and 123 | checkerboard growth readout ([4]; levofloxacin 250 ng/mL): 61 and 91 | MIC ([4]; read-out: levofloxacin MIC (checkerboard)): 0.5 µg/mL | MIC ([4]; read-out: levofloxacin boosted MIC (checkerboard)): 0.016 µg/mL | checkerboard growth readout ([5]; levofloxacin 4 ng/mL): 105 and 97 | checkerboard growth readout ([5]; levofloxacin 8 ng/mL): 113 and 94 | checkerboard growth readout ([5]; levofloxacin 15.625 ng/mL): 114 and 99 | checkerboard growth readout ([5]; levofloxacin 31.25 ng/mL): 121 and 95 | checkerboard growth readout ([5]; levofloxacin 62.5 ng/mL): 141 and 104 | checkerboard growth readout ([5]; levofloxacin 250 ng/mL): 148 and 137 | checkerboard growth readout ([5]; levofloxacin 500 ng/mL): 131 and 124
